US20240208992A1, “MACROCYCLES AS CFTR MODULATORS” (Idorsia Pharmaceuticals Ltd, priority 2021, published 2024)

Target: human F508del-CFTR (Homo sapiens, UniProt P13569, DEL508-508)
Assay: F508del-CFTR cell surface expression (corrector activity), DiscoveRx ß-galactosidase complementation chemiluminescence assay in recombinant U2OS cell line;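 note: U2OS cells co-expressing ProLink-tagged F508del-CFTR and a membrane-anchored enzyme acceptor, where more surface CFTR restores β-galactosidase activity measured by chemiluminescence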
Conditions: U2OS cell line, 16h compound incubation; for EC50: EC50, F508del-CFTR cell surface expression, geomean values; for Emax: U2OS, in relation to the Emax of the corrector lumacaftor (=100%), arithmetic mean values

Chain of human F508del-CFTR (P13569 with tags, fused parts or gaps DEL508-508): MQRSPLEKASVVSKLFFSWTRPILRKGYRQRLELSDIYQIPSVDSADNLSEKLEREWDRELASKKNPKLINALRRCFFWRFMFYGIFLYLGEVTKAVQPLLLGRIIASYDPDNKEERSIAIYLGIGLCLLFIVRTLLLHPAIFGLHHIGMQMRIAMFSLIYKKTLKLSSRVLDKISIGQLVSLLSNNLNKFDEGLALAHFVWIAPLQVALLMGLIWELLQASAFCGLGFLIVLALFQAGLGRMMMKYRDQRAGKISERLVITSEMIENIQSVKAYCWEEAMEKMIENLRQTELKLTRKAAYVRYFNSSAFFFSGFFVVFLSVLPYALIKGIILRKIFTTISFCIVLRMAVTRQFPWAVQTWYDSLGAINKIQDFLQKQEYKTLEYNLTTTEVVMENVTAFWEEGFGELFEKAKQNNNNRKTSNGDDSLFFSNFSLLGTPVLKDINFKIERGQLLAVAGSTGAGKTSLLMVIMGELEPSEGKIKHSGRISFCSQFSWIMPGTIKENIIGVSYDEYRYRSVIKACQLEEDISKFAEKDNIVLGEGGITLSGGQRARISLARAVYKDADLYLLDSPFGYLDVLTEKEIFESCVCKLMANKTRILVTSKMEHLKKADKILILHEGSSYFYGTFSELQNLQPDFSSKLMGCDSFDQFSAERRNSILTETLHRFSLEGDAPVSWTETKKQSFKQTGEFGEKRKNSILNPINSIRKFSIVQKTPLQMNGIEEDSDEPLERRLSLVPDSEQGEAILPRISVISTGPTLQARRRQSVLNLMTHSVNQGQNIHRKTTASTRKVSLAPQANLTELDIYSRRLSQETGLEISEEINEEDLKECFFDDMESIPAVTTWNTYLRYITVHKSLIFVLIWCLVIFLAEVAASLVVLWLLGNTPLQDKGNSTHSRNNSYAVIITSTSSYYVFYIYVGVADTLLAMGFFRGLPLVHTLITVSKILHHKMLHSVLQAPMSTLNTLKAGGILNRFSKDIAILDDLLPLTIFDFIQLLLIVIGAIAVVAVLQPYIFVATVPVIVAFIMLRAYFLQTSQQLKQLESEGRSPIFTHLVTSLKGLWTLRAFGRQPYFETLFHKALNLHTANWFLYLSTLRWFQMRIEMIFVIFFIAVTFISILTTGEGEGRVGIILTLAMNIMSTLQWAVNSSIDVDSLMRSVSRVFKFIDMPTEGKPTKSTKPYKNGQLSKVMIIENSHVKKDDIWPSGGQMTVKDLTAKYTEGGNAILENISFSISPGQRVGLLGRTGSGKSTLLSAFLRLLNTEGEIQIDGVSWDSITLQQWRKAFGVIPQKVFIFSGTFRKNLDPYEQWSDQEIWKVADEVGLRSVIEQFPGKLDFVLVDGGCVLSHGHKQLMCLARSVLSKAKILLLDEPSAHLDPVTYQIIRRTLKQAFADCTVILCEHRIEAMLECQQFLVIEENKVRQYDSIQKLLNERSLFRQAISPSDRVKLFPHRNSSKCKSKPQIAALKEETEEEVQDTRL

Row | Compound | EC50 | Emax
1 | [2H]C([2H])([2H])Oc1cccc(CCNC(=O)[C@@H]2CC(=O)N(C)[C@@H](CC(C)C)C(=O)N(CCC3CCCCC3)CC(=O)N[C@H](Cc3ccccc3)COc3cccc(OC)c3C(=O)N2)c1 [Example 200, (3R,9S,13S)-3-benzyl-7-(2-cyclohexylethyl)-9-isobutyl-16-methoxy-N-(3-(methoxy-d3)phenethyl)-10-methyl-5,8,11,15-tetraoxo-2,3,4,5,6,7,8,9,10,11,12,13,14,15-tetradecahydrobenzo[p][1]oxa[4,7,10,14]tetraazacycloheptadecine-13-carboxamide] | 210 nM | 270%
2 | CCOc1cccc(CCNC(=O)[C@@H]2CC(=O)N(C)[C@@H](CC(C)C)C(=O)N(CCC3CCCCC3)CC(=O)N[C@H](Cc3ccccc3)COc3cccc(OC)c3C(=O)N2)c1 [Example 201, (3R,9S,13S)-3-benzyl-7-(2-cyclohexylethyl)-N-(3-ethoxyphenethyl)-9-isobutyl-16-methoxy-10-methyl-5,8,11,15-tetraoxo-2,3,4,5,6,7,8,9,10,11,12,13,14,15-tetradecahydrobenzo[p][1]oxa[4,7,10,14]tetraazacycloheptadecine-13-carboxamide] | 222 nM | 109%
3 | COc1cccc2c1C(=O)N[C@H](C(=O)NCCc1ccc(C)cc1)CC(=O)N(C)[C@@H](CC(C)C)C(=O)N(CCC1CCCCC1)CC(=O)N[C@H](Cc1ccccc1)CO2 [Example 202, (3R,9S,13S)-3-benzyl-7-(2-cyclohexylethyl)-9-isobutyl-16-methoxy-10-methyl-N-(4-methylphenethyl)-5,8,11,15-tetraoxo-2,3,4,5,6,7,8,9,10,11,12,13,14,15-tetradecahydrobenzo[p][1]oxa[4,7,10,14]tetraazacycloheptadecine-13-carboxamide] | 187 nM | 160%
4 | COc1cccc2c1C(=O)N[C@H](C(=O)NCCc1ccc(N(C)C)cc1)CC(=O)N(C)[C@@H](CC(C)C)C(=O)N(CCC1CCCCC1)CC(=O)N[C@H](Cc1ccccc1)CO2 [Example 203, (3R,9S,13S)-3-benzyl-7-(2-cyclohexylethyl)-N-(4-(dimethylamino)phenethyl)-9-isobutyl-16-methoxy-10-methyl-5,8,11,15-tetraoxo-2,3,4,5,6,7,8,9,10,11,12,13,14,15-tetradecahydrobenzo[p][1]oxa[4,7,10,14]tetraazacycloheptadecine-13-carboxamide] | 183 nM | 134%
5 | COc1cccc2c1C(=O)N[C@H](C(=O)NCCc1ccccc1F)CC(=O)N(C)[C@@H](CC(C)C)C(=O)N(CCC1CCCCC1)CC(=O)N[C@H](Cc1ccccc1)CO2 [Example 204, (3R,9S,13S)-3-benzyl-7-(2-cyclohexylethyl)-N-(2-fluorophenethyl)-9-isobutyl-16-methoxy-10-methyl-5,8,11,15-tetraoxo-2,3,4,5,6,7,8,9,10,11,12,13,14,15-tetradecahydrobenzo[p][1]oxa[4,7,10,14]tetraazacycloheptadecine-13-carboxamide] | 198 nM | 173%
6 | COc1cc(CCNC(=O)[C@@H]2CC(=O)N(C)[C@@H](CC(C)C)C(=O)N(CCC3CCCCC3)CC(=O)N[C@H](Cc3ccccc3)COc3cccc(OC)c3C(=O)N2)cc(OC)c1 [Example 205, (3R,9S,13S)-3-benzyl-7-(2-cyclohexylethyl)-N-(3,5-dimethoxyphenethyl)-9-isobutyl-16-methoxy-10-methyl-5,8,11,15-tetraoxo-2,3,4,5,6,7,8,9,10,11,12,13,14,15-tetradecahydrobenzo[p][1]oxa[4,7,10,14]tetraazacycloheptadecine-13-carboxamide] | 175 nM | 229%
7 | COc1cccc2c1C(=O)N[C@H](C(=O)NCCc1cccs1)CC(=O)N(C)[C@@H](CC(C)C)C(=O)N(CCC1CCCCC1)CC(=O)N[C@H](Cc1ccccc1)CO2 [Example 206, (3R,9S,13S)-3-benzyl-7-(2-cyclohexylethyl)-9-isobutyl-16-methoxy-10-methyl-5,8,11,15-tetraoxo-N-(2-(thiophen-2-yl)ethyl)-2,3,4,5,6,7,8,9,10,11,12,13,14,15-tetradecahydrobenzo[p][1]oxa[4,7,10,14]tetraazacycloheptadecine-13-carboxamide] | 272 nM | 164%
8 | COc1ccc(CCNC(=O)[C@@H]2CC(=O)N(C)[C@@H](CC(C)C)C(=O)N(CCC3CCCCC3)CC(=O)N[C@H](Cc3ccccc3)COc3cccc(OC)c3C(=O)N2)nc1 [Example 207, (3R,9S,13S)-3-benzyl-7-(2-cyclohexylethyl)-9-isobutyl-16-methoxy-N-(2-(5-methoxypyridin-2-yl)ethyl)-10-methyl-5,8,11,15-tetraoxo-2,3,4,5,6,7,8,9,10,11,12,13,14,15-tetradecahydrobenzo[p][1]oxa[4,7,10,14]tetraazacycloheptadecine-13-carboxamide] | 317 nM | 138%
9 | COc1cccc2c1C(=O)N[C@H](C(=O)NCCc1ccco1)CC(=O)N(C)[C@@H](CC(C)C)C(=O)N(CCC1CCCCC1)CC(=O)N[C@H](Cc1ccccc1)CO2 [Example 208, (3R,9S,13S)-3-benzyl-7-(2-cyclohexylethyl)-N-(2-(furan-2-yl)ethyl)-9-isobutyl-16-methoxy-10-methyl-5,8,11,15-tetraoxo-2,3,4,5,6,7,8,9,10,11,12,13,14,15-tetradecahydrobenzo[p][1]oxa[4,7,10,14]tetraazacycloheptadecine-13-carboxamide] | 277 nM | 188%
10 | COc1cccc2c1C(=O)N[C@H](C(=O)NCCn1nc(C)cc1C)CC(=O)N(C)[C@@H](CC(C)C)C(=O)N(CCC1CCCCC1)CC(=O)N[C@H](Cc1ccccc1)CO2 [Example 209, (3R,9S,13S)-3-benzyl-7-(2-cyclohexylethyl)-N-(2-(3,5-dimethyl-1H-pyrazol-1-yl)ethyl)-9-isobutyl-16-methoxy-10-methyl-5,8,11,15-tetraoxo-2,3,4,5,6,7,8,9,10,11,12,13,14,15-tetradecahydrobenzo[p][1]oxa[4,7,10,14]tetraazacycloheptadecine-13-carboxamide] | 392 nM | 118%
11 | COCCCNC(=O)[C@@H]1CC(=O)N(C)[C@@H](CC(C)C)C(=O)N(CCC2CCCCC2)CC(=O)N[C@H](Cc2ccccc2)COc2cccc(OC)c2C(=O)N1 [Example 210, (3R,9S,13S)-3-benzyl-7-(2-cyclohexylethyl)-9-isobutyl-16-methoxy-N-(3-methoxypropyl)-10-methyl-5,8,11,15-tetraoxo-2,3,4,5,6,7,8,9,10,11,12,13,14,15-tetradecahydrobenzo[p][1]oxa[4,7,10,14]tetraazacycloheptadecine-13-carboxamide] | 352 nM | 108%
12 | COc1cccc2c1C(=O)N[C@H](C(=O)NCCc1ccccc1)CC(=O)N(C)[C@@H](CC(C)C)C(=O)N(CCC1CCCCC1)CC(=O)N[C@H](Cc1ccccc1)CO2 [Example 211, (3R,9S,13S)-3-benzyl-7-(2-cyclohexylethyl)-9-isobutyl-16-methoxy-10-methyl-5,8,11,15-tetraoxo-N-phenethyl-2,3,4,5,6,7,8,9,10,11,12,13,14,15-tetradecahydrobenzo[p][1]oxa[4,7,10,14]tetraazacycloheptadecine-13-carboxamide] | 309 nM | 146%
